The text below walks through data of patent US10092551B2, “Spiro-thiazolones” (Hoffmann-La Roche Inc., priority 2014, dated 2018).

Chain of human V1a receptor (P37288 whole entry): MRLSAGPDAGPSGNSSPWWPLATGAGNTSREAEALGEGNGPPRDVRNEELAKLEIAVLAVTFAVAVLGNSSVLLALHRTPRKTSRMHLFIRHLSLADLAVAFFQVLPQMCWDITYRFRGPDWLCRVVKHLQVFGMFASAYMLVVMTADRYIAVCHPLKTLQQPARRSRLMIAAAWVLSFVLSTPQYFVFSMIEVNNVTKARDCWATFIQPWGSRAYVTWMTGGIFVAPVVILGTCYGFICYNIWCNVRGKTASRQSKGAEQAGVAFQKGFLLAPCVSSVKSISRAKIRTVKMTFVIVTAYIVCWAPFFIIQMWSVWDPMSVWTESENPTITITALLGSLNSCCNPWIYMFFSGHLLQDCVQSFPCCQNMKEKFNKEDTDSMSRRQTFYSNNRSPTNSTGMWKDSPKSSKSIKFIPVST

This assay deals with human V1a receptor (Homo sapiens (Human), UniProt P37288). Description: human V1a receptor binding studies (3H-Vasopressin, SPA beads). The note with it: membranes of HEK293 cells transiently transfected with human V1a receptor, Ki by Cheng-Prussoff. The method in brief:
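Membranes from HEK293 cells transiently expressing cloned human V1a receptor, bound on yttrium silicate SPA beads with 4 nM 3H-vasopressin (added stock) and serially diluted compound, 1 h at room temperature. Non-specific binding defined with cold vasopressin; IC50 by non-linear regression, Ki via Cheng-Prusoff.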
On to `O=C1N=C(N2CCC3(CC2)OCc2ccccc23)S/C1=C1/CCCOC1` [Example 76, (5E/Z)-5-(dihydro-2H-pyran-3(4H)-ylidene)-2-(1′H,3H-spiro[2-benzofuran-1,4′-piperidin]-1′-yl)-1,3-thiazol-4(5H)-one], for which the “pKi hV1a” value is listed as 7.8.

As for `C/C(=C1/SC(N2CCC3(CC2)OCc2ccccc23)=NC1=O)c1ccnc(C)c1` [Example 77, (5E/Z)-5-[1-(2-methylpyridin-4-yl)ethylidene]-2-(1′H,3H-spiro[2-benzofuran-1,4′-piperidin]-1′-yl)-1,3-thiazol-4(5H)-one], the “pKi hV1a” value is given as 7.6.

For the compound `C/C(=C1/SC(N2CCC3(CC2)OCc2ccccc23)=NC1=O)C1CCOCC1` [Example 78, (5E/Z)-2-(1′H,3H-spiro[2-benzofuran-1,4′-piperidin]-1′-yl)-5-[1-(tetrahydro-2H-pyran-4-yl)ethylidene]-1,3-thiazol-4(5H)-one], the “pKi hV1a” value is reported as 7.9.

Take `C/C(=C1/SC(N2CCC3(CC2)OCc2ccccc23)=NC1=O)c1cc(C)on1` [Example 79]: the “pKi hV1a” value is 8.4.

`CC(C)(C)OC(=O)N1CCC/C(=C2/SC(N3CCC4(CC3)OCc3ccccc34)=NC2=O)CC1` [Example 80, tert-butyl (4E/Z)-4-[4-oxo-2-(1′H,3H-spiro[2-benzofuran-1,4′-piperidin]-1′-yl)-1,3-thiazol-5(4H)-ylidene]azepane-1-carboxylate]: the “pKi hV1a” value worked out at 7.1.

Consider `O=C1N=C(N2CCC3(CC2)OCc2ccccc23)SC1=C(c1ccccc1)c1ccccc1` [Example 82, 5-(diphenylmethylidene)-2-(1′H,3H-spiro[2-benzofuran-1,4′-piperidin]-1′-yl)-1,3-thiazol-4(5H)-one], for which the “pKi hV1a” value was 8.4.

Take `C/C(=C1/SC(N2CCC3(CC2)OCc2ccccc23)=NC1=O)c1cccnc1Cl` [Example 83, (5Z)-5-[1-(2-chloropyridin-3-yl)ethylidene]-2-(1′H,3H-spiro[2-benzofuran-1,4′-piperidin]-1′-yl)-1,3-thiazol-4(5H)-one]: the “pKi hV1a” value was 8.8.

With `C/C(=C1\SC(N2CCC3(CC2)OCc2ccccc23)=NC1=O)c1cccnc1Cl` [Example 84, (5E)-5-[1-(2-chloropyridin-3-yl)ethylidene]-2-(1′H,3H-spiro[2-benzofuran-1,4′-piperidin]-1′-yl)-1,3-thiazol-4(5H)-one], the “pKi hV1a” value amounted to 7.7.

Turning to `COc1ccc(/C(C)=C2\SC(N3CCC4(CC3)OCc3ccccc34)=NC2=O)cn1` [Example 85, (5E/Z)-5-[1-(6-methoxypyridin-3-yl)ethylidene]-2-(1′H,3H-spiro[2-benzofuran-1,4′-piperidin]-1′-yl)-1,3-thiazol-4(5H)-one], the “pKi hV1a” value turned out to be 8.4.

`C/C(=C1/SC(N2CCC3(CC2)OCc2ccccc23)=NC1=O)c1oc(C)nc1C` [Example 86, (5E/Z)-5-[1-(2,4-dimethyl-1,3-oxazol-5-yl)ethylidene]-2-(1′H,3H-spiro[2-benzofuran-1,4′-piperidin]-1′-yl)-1,3-thiazol-4(5H)-one]: the “pKi hV1a” value is 8.9.

In the case of `O=C1N=C(N2CCC3(CC2)OCc2ccccc23)S/C1=C1/COCc2ccccc21` [Example 87, (5E/Z)-5-(1H-isochromen-4(3H)-ylidene)-2-(1′H,3H-spiro[2-benzofuran-1,4′-piperidin]-1′-yl)-1,3-thiazol-4(5H)-one], the “pKi hV1a” value came to 8.9.

For the compound `CC(C)(C)OC(=O)N1CCC/C(=C2/SC(N3CCC4(CC3)OCc3ccccc34)=NC2=O)C1` [Example 88, tert-butyl (3E/Z)-3-[4-oxo-2-(1′H,3H-spiro[2-benzofuran-1,4′-piperidin]-1′-yl)-1,3-thiazol-5(4H)-ylidene]piperidine-1-carboxylate], the “pKi hV1a” value stood at 6.7.

Regarding `O=C1N=C(N2CCC3(CC2)OCc2ccccc23)S/C1=C1/CCCCc2ccc(Cl)cc21` [Example 89, (5E/Z)-5-(3-chloro-6,7,8,9-tetrahydro-5H-benzo[7]annulen-5-ylidene)-2-(1′H,3H-spiro[2-benzofuran-1,4′-piperidin]-1′-yl)-1,3-thiazol-4(5H)-one], the “pKi hV1a” value was 9.0.

As to `O=C1N=C(N2CCC3(CC2)OCc2ccccc23)S/C1=C\c1ccccn1` [Example 90, (5Z)-5-(pyridin-2-ylmethylidene)-2-(1′H,3H-spiro[2-benzofuran-1,4′-piperidin]-1′-yl)-1,3-thiazol-4(5H)-one], the “pKi hV1a” value came to 7.3.

On to `Cc1cc(/C=C2\SC(N3CCC4(CC3)OCc3ccccc34)=NC2=O)no1` [Example 91, 5-[(5-methyl-1,2-oxazol-3-yl)methylidene]-2-(1′H,3H-spiro[2-benzofuran-1,4′-piperidin]-1′-yl)-1,3-thiazol-4(5H)-one], for which the “pKi hV1a” value is reported as 7.5.

Regarding `COC/C(=C1/SC(N2CCC3(CC2)OCc2ccccc23)=NC1=O)c1ccccc1` [Example 92, (5E)-5-(2-methoxy-1-phenylethylidene)-2-(1′H,3H-spiro[2-benzofuran-1,4′-piperidin]-1′-yl)-1,3-thiazol-4(5H)-one], the “pKi hV1a” value was determined as 9.0.

For the compound `Cc1cc(/C=C2\SC(N3CCC4(CC3)OCc3ccccc34)=NC2=O)no1` [Example 93, 5-[(5-methyl-1,2-oxazol-3-yl)methylidene]-2-(1′H,3H-spiro[2-benzofuran-1,4′-piperidin]-1′-yl)-1,3-thiazol-4(5H)-one], the “pKi hV1a” value came out at 8.1.

As to `O=C1N=C(N2CCC3(CC2)OCc2ccccc23)S/C1=C\c1cccnc1` [Example 94, 5-(pyridin-3-ylmethylidene)-2-(1′H,3H-spiro[2-benzofuran-1,4′-piperidin]-1′-yl)-1,3-thiazol-4(5H)-one], the “pKi hV1a” value is listed as 7.1.

For the compound `O=C1N=C(N2CCC3(CC2)OCc2ccccc23)S/C1=C\c1ccncc1` [Example 95, 5-(pyridin-4-ylmethylidene)-2-(1′H,3H-spiro[2-benzofuran-1,4′-piperidin]-1′-yl)-1,3-thiazol-4(5H)-one], the “pKi hV1a” value is reported as 7.1.

`C/C(=C1/SC(N2CCC3(CC2)OCc2ccccc23)=NC1=O)c1ccc(Cl)nc1` [Example 96, (5Z)-5-[1-(6-chloropyridin-3-yl)ethylidene]-2-(1′H,3H-spiro[2-benzofuran-1,4′-piperidin]-1′-yl)-1,3-thiazol-4(5H)-one]: the “pKi hV1a” value is listed as 9.4.

As to `O=C1N=C(N2CCC3(CC2)OCc2ccccc23)SC1=C1c2ccccc2CCc2ccccc21` [Example 98, 5-(10,11-dihydro-5H-dibenzo[a,d][7]annulen-5-ylidene)-2-(1′H,3H-spiro[2-benzofuran-1,4′-piperidin]-1′-yl)-1,3-thiazol-4(5H)-one], the “pKi hV1a” value is 8.6.

For the compound `O=C1N=C(N2CCC3(CC2)OCc2ccccc23)SC1=C1c2ccccc2C=Cc2ccccc21` [Example 99, 5-(5H-dibenzo[a,d][7]annulen-5-ylidene)-2-(1′H,3H-spiro[2-benzofuran-1,4′-piperidin]-1′-yl)-1,3-thiazol-4(5H)-one], the “pKi hV1a” value was 8.4.

For the compound `O=C1N=C(N2CCC3(CC2)OCc2ccccc23)SC1=C(c1ccc(Cl)cc1)c1ccc(Cl)cc1` [Example 100, 5-[bis(4-chlorophenyl)methylidene]-2-(1′H,3H-spiro[2-benzofuran-1,4′-piperidin]-1′-yl)-1,3-thiazol-4(5H)-one], the “pKi hV1a” value is given as 7.1.
